Assay results taken from article PMC8984176, “Tuftsin: A Natural Molecule Against SARS-CoV-2 Infection” (Frontiers in Molecular Biosciences, 2022).
pKd: −log10 of the molar value. Peptide text beside a SMILES is read from it.

Legend:
recombinant human ACE2 = target: T1, recombinant human ACE2 (Homo sapiens, UniProt Q9BYF1); assay: SPR binding to immobilized ACE2; conditions: SPR Biacore T200, CM5 chip, amine coupling, 25°C, 30 µl/min, 1×PBS, 0.05% Tween 20, 5% dimethyl sulfoxide, pH 7.4; steady state affinity model; read-out: equilibrium dissociation constant (K D)
T1 construct: purchased Novoprotein, Beijing, China
T1 sequence (Q9BYF1 18-805): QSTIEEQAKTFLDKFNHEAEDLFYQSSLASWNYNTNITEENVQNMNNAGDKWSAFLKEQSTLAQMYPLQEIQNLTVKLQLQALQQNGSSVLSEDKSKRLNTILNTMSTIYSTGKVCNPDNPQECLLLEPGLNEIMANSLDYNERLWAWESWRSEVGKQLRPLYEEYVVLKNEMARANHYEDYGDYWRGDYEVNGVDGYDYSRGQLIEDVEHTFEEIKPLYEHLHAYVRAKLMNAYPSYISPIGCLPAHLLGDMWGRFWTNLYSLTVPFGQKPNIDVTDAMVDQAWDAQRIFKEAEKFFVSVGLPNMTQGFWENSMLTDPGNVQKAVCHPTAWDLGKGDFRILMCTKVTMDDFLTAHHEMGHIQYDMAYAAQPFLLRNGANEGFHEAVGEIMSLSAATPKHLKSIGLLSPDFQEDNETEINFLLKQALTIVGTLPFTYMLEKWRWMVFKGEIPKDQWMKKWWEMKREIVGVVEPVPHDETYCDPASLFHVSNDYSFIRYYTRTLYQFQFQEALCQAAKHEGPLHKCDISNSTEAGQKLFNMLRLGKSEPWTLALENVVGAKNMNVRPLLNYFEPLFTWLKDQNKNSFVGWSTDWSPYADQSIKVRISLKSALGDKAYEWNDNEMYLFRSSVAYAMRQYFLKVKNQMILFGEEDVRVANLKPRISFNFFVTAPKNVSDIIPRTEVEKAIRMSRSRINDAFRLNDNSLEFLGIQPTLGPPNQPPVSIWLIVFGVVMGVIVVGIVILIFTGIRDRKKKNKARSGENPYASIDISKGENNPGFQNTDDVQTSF
Method: (§1) Each target was immobilized onto flow cells in a CM5 sensor chip (GE Healthcare) via the amine-coupling method. Briefly, ACE2 and NRP1 were diluted in 10 mM pH 4.5 acetate to 20 μg/ml. Then, the protein solutions were injected individually on the carboxyl-modified sensor surface to form amine bonds. Both ACE2 and NRP1 immobilized levels were approximately 10,000 RU. Binding analyses were carried out at 25°C and a flow rate of 30 µl/min. Tuftsin diluted in running buffer (1×PBS, 0.05% Tween 20 and 5% dimethyl sulfoxide, pH 7.4) was run over each target at gradient concentrations. An empty flow cell without any immobilized protein was used as a deducted reference. The binding curves were analysed using the steady state affinity model supplied with Biacore Evaluation Software (GE Healthcare).
(§2) The interactions of tuftsin with ACE2 and NRP1 were further evaluated by real-time biomolecular interaction analysis with SPR. The steady state affinity of the binding reaction were determined by injecting different concentrations of tuftsin over recombinant human ACE2 immobilized on one half of the chip surface, and over recombinant human NRP1 immobilized on another half of the chip surface. […] The K D fitting curve of tuftsin with NRP1 is gradually stable when the concentrations of tuftsin increased gradually, conforming to the characteristic of specific binding (Figure 3B).

[1] = in vitro and in vivo; ref Amoscato et al., 1983; Fridkin and Najjar, 1989; Siemion and Kluczyk, 1999; cited from earlier work
Description: Along with ACE2, neuropilin 1 (NRP1) is another important host factor for SARS-CoV-2 infection ([Daly et al., 2020]). It has been reported that NRP1 facilitates the entry of SARS-CoV-2 into cells in the presence of ACE2 ([Cantuti-Castelvetri et al., 2020]). […] Tuftsin, a natural phagocytosis-stimulating peptide, was found by [Najjar and Nishioka (1970)]. Tuftsin is released from the Fc fragment of IgG by enzyme cleavage of an endocarboxy-peptidase in the spleen and a leukokin ...

recombinant human NRP1 = recombinant human NRP1 (Homo sapiens, UniProt O14786); assay: SPR binding to immobilized NRP1; conditions: SPR Biacore T200, CM5 chip, amine coupling, 25°C, 30 µl/min, 1×PBS, 0.05% Tween 20, 5% dimethyl sulfoxide, pH 7.4; steady state affinity model; read-out: K D value
recombinant human NRP1, sequence (O14786 22-923): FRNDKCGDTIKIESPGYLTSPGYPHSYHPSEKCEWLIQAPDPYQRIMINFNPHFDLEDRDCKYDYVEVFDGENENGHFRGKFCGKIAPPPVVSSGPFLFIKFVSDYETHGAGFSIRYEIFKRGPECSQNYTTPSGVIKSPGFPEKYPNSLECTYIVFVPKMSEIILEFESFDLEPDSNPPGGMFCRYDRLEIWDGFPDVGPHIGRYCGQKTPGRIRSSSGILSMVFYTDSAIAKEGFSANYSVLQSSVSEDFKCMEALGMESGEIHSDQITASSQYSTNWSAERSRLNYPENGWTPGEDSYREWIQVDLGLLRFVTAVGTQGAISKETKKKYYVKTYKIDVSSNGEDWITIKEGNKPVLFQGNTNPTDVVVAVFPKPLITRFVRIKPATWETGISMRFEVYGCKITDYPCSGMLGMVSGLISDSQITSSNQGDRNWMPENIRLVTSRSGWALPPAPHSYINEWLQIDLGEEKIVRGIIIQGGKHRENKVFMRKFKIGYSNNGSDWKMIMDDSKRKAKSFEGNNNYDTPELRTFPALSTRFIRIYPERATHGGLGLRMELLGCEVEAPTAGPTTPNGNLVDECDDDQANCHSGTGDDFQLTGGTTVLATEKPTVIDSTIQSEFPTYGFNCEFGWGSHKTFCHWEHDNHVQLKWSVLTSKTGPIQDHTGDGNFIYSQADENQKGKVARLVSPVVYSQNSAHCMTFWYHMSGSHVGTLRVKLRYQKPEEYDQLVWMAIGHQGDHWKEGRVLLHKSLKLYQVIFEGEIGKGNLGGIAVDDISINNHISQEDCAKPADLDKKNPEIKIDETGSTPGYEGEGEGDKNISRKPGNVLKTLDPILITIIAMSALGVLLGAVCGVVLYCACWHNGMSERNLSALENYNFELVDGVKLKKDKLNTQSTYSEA
Method: as §1, §2

C[C@@H](O)[C@H](N)C(=O)N[C@@H](CCCCN)C(=O)N1CCC[C@H]1C(=O)N[C@@H](CCCNC(=N)N)C(=O)O [tuftsin, L-Threonyl-L-Lysyl-L-Prolyl-L-Arginine] (H-TKPR-OH)
pKd (recombinant human ACE2): 3.34 | toxicity [1]: low toxicity | pKd (recombinant human NRP1): 4.97
